Experimental findings from PubChem BioAssay (NCI) are described below.

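Exposure lasted 48 hours, with cells grown in 96-well plates and compounds tested at five concentrations. GI50 = concentration required for 50% inhibition of growth. TGI: concentration producing complete growth inhibition.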

What all share (assay): NCI anticancer screen, dose series, 48 h
In assay [1] the test system is CCRF-CEM leukemia.
In assay [2] the test system is EKVX NSCLC.
The test system of assay [3] is NCI-H522 lung.
In assay [4] the test system is OVCAR-5 ovarian.
Assay [5] concerns SF-295 CNS.
Assay [6] deals with SR leukemia.
For assay [7], the system named is UACC-257 melanoma.
The subject of assay [8] is HOP-92 NSCLC.

Consider `O=C(O)c1ccc2c(c1)C(=O)N(c1ccc(S(=O)(=O)c3ccc(N4C(=O)c5ccc(C(=O)O)cc5C4=O)cc3)cc1)C2=O`, for which the TGI in assay [1], in assay [2], in assay [3], in assay [4], in assay [5] and in assay [6] was more than 100 µM throughout. Besides, the TGI in assay [7] is more than 100 µM.

Turning to `CC1(C)c2ccccc2N2C(c3ccccc3)=NOC21C` (stereo not drawn), the TGI in assay [1], in assay [2], in assay [8], in assay [3], in assay [4] and in assay [5] was more than 100 µM throughout. Also, the TGI in assay [6] and in assay [7] was more than 100 µM each time.

As to `C=C1C(=O)O[C@H](c2ccoc2)C[C@@H]1[C@@]1(C)CCCC2(C)C(=O)OCC21` (stereo partly drawn), the TGI in assay [1], in assay [2], in assay [3], in assay [4], in assay [5] and in assay [7] was more than 100 µM throughout.

Turning to `CC1OC(n2cc(C(F)(F)F)c(=O)[nH]c2=O)C=CC1=O` (stereo not drawn), the TGI in assay [8] was 41 µM; in assay [3], 32.5 µM; in assay [4], 33.5 µM; in assay [5], 81.5 µM; in assay [6], 33.3 µM; in assay [7] it was 38.8 µM.

As to `C/C=C/C(=O)Oc1cccc2cccnc12`, the TGI is 31.7 µM in assay [1]; more than 81.3 µM in assay [2]; 57.9 µM in assay [8]; 5.15 µM in assay [3]; more than 100 µM in assay [4]; more than 100 µM in assay [5]. Also, the TGI is more than 100 µM in assay [6] and 40.9 µM in assay [7].

On to `CCOC(=O)C1=C(C)NC(=O)NC1c1ccc(OC)cc1OC` (stereo not drawn), for which the TGI in assay [1], in assay [2], in assay [8], in assay [3], in assay [4] and in assay [5] was more than 100 µM each time. Moreover, the TGI in assay [6] and in assay [7] was more than 100 µM throughout.

Regarding `COc1ccc(CN2C(=O)[C@@H]3Cc4c(OC)c(C)c(OC)c(OC)c4[C@H](/C2=C\c2cc(OC)c(OC)c(C)c2OC)N3C(=O)OC(C)C)cc1`, the TGI in assay [1], in assay [2], in assay [8], in assay [3], in assay [4] and in assay [5] was more than 100 µM each time. Besides, the TGI in assay [6] and in assay [7] was more than 100 µM each time.

Consider `Nc1cccc2c1-c1c(cccc1[N+](=O)[O-])C2=O`, for which the TGI in assay [1], in assay [2], in assay [8], in assay [3], in assay [4] and in assay [5] was more than 100 µM in each case. The TGI in assay [6] and in assay [7] was more than 100 µM throughout.

As to `N#C/C(=C\c1c(O)cc(O)cc1O)C(N)=O`, the TGI in assay [1], in assay [2], in assay [8], in assay [3], in assay [4] and in assay [5] was more than 100 µM in each case. This molecule had a TGI in assay [7] of more than 100 µM.

Regarding `CCC12C=CCN(CCc3c([nH]c4ccccc34)/C=C\1)C2` (stereo not drawn), the TGI in assay [1], in assay [2], in assay [3], in assay [5], in assay [6] and in assay [7] was more than 100 µM in each case.

For `Cc1ccccc1NC(=O)Cc1nc2ccccc2s1`, the TGI in assay [1] is 33 µM; in assay [2], 35.1 µM; in assay [3] it was 29.3 µM; in assay [4] it was 36.3 µM; in assay [5], 29.2 µM; in assay [6], 63 µM. In assay [7], this molecule came in with a TGI of 30.8 µM.

Take `Cc1ccccc1NC(=O)/C(=N\NC(N)=S)C(C#N)c1ccccc1` (stereo not drawn): the TGI in assay [1], in assay [2], in assay [8], in assay [3], in assay [4] and in assay [5] was more than 100 µM throughout. Besides, the TGI in assay [6] and in assay [7] was more than 100 µM in each case.

With `Cn1[nH]cc2ccc3nc4ccccc4c(=O)c3c21`, the TGI in assay [1] is more than 100 µM; in assay [2], more than 100 µM; in assay [8], more than 83 µM; in assay [3], 64.9 µM; in assay [4], 92.8 µM; in assay [5] it was more than 96.3 µM. Moreover, the TGI in assay [6] was more than 100 µM; in assay [7], more than 74 µM.

Regarding `COC(=O)c1c(O)ccc(O)c1C(C(C)=O)C(C)=O`, the TGI in assay [1], in assay [2], in assay [8], in assay [3], in assay [5] and in assay [7] was more than 100 µM throughout.

In the case of `Cc1cccc(NC(=O)C(=O)C(C2OC(=O)c3ccccc32)[N+](=O)[O-])c1C` (stereo not drawn), the TGI in assay [1] was 20.4 µM; in assay [2], 46.3 µM; in assay [3], 4.2 µM; in assay [4] it was 33.3 µM; in assay [5], 28.1 µM; in assay [6], more than 100 µM. This molecule also yielded a TGI in assay [7] of 17.6 µM.

Turning to `O=C(/C=C/c1ccc(Cl)c(Cl)c1)c1ccccc1Cl`, the TGI in assay [1] amounted to 19.1 µM; in assay [2] it was 31.4 µM; in assay [8], 31.7 µM; in assay [3] it was 24.1 µM; in assay [4], 30.4 µM; in assay [5], 26.9 µM. Besides, the TGI in assay [6] was 36.7 µM; in assay [7] it was 27.7 µM.

As for `Cc1ccc2c(c1)-c1c3c(nn1C)-c1ccccc1SC3O2` (stereo not drawn), the TGI in assay [1], in assay [2], in assay [8], in assay [3], in assay [4] and in assay [5] was more than 100 µM each time. The molecule further had a TGI in assay [7] of more than 100 µM.

For `N#Cc1c2ccccc2c(Cc2ccc3c(c2)OCCOCCOCCOCCOCCO3)c2ccccc12`, the TGI is more than 100 µM in assay [1]; 35.9 µM in assay [2]; 12.2 µM in assay [8]; 31.9 µM in assay [3]; 30.1 µM in assay [4]; 21.3 µM in assay [5]. In addition, the TGI is more than 100 µM in assay [6] and 22.5 µM in assay [7].

Consider `CN(C)NC(=O)/C(=C/c1ccc(Cl)cc1)NC(=O)c1ccccc1`, for which the TGI in assay [1], in assay [2], in assay [8], in assay [3], in assay [4] and in assay [5] was more than 100 µM throughout. For the same molecule, the TGI in assay [6] and in assay [7] was more than 100 µM throughout.

On to `CC(=O)[CH-]C(=O)c1ccccc1.CC(=O)[CH-]C(=O)c1ccccc1.Cl.[O-]c1ccnc2ccccc12.[O-]c1ccnc2ccccc12.[Ti+4]`, for which the GI50 in assay [1], in assay [2], in assay [8], in assay [3], in assay [4] and in assay [5] was more than 100 µM in each case. The GI50 in assay [7] was more than 100 µM. Moreover, the TGI in assay [1], in assay [2], in assay [8], in assay [3], in assay [4] and in assay [5] was more than 100 µM throughout. This molecule registered a TGI in assay [7] of more than 100 µM.

With `C[P+]1(Cc2ccccc2)CCCC1`, the TGI in assay [1], in assay [2], in assay [3], in assay [4], in assay [5] and in assay [6] was more than 100 µM throughout. In assay [7], this molecule had a TGI of more than 100 µM.

`Cc1ccc(S(=O)(=O)OCOS(=O)(=O)c2ccc(C)cc2)cc1`: the TGI in assay [1], in assay [2], in assay [3], in assay [4], in assay [5] and in assay [6] was more than 100 µM in each case. The molecule also gave a TGI in assay [7] of more than 100 µM.

For the molecule `CC(=O)OCC1OC(n2cccnc2=O)C(OC(C)=O)C1OC(C)=O` (stereo not drawn), the TGI in assay [1], in assay [2], in assay [8], in assay [3], in assay [4] and in assay [6] was more than 100 µM throughout. In assay [7], this molecule yielded a TGI of more than 100 µM.

In the case of `CC1(C)C(=O)OC(n2cc(F)c(=O)[nH]c2=O)C1=O` (stereo not drawn), the TGI in assay [1] was more than 100 µM; in assay [2] it was more than 100 µM; in assay [8], 98.6 µM; in assay [3], more than 100 µM; in assay [4], more than 100 µM; in assay [5], more than 100 µM. The same molecule displayed a TGI in assay [7] of more than 100 µM.

Turning to `CCOC(=O)c1cc(=O)n(C)c(=O)n1C`, the TGI in assay [1], in assay [2], in assay [8], in assay [3], in assay [4] and in assay [5] was more than 100 µM throughout. This molecule also registered a TGI in assay [7] of more than 100 µM.
